Test results: US10800755B2, “2,6-disubstituted pyridine derivative” (Sumitomo Dainippon Pharma Co., Ltd., priority 2017, dated 2020)
Read-outs that look alike come from different tables or passages of the source.

What was measured:
human 5-HT1A receptor [1] = molecular target: T1, human 5-HT1A receptor (Homo sapiens (Human), UniProt P08908); assay: Test 2: binding activity to human 5-HT1A receptor ([3H] 8-OH-DPAT, CHO cell membrane); conditions: [3H] 8-OH-DPAT; read-out: 5-HT1A binding affinity (Ki value)
Protocol: (§1) Test 2: Evaluation of Binding Activity to Human 5-HT1A Receptor, Human D4 Receptor, and Human D2 Receptor
(§2) CHO cell membrane fraction in which human 5-HT1A receptor, human D4 receptor, and human D2 receptor were expressed was purchased from PerkinElmer Co., Ltd. In the evaluation test of binding, the test compound dissolved in DMSO, each receptor membrane preparation diluted with buffer solution, and [3H] […] The nonspecific binding to each receptor was evaluated by a competition binding experiment in the presence of 10 μmol/L 8-OH-DPAT, 10 μmol/L dopamine, or 10 μmol/L spiperone, respectively.

human D4 receptor [2] = molecular target: T2, human D4 receptor (Homo sapiens (Human), UniProt P21917); assay: Test 2: binding activity to human D4 receptor ([3H] dopamine, CHO cell membrane)
Protocol: as §1, §2

human D4 receptor [3] = molecular target: T2, human D4 receptor; assay: Test 1: agonistic activity for human D4 receptor (aequorin/Gα16 luminescence in CHO-K1 cell); type: cell-based; conditions: for Emax: CHO-K1; for Emax / D4 agonistic activity Emax: 100% = 10 μmol/L endogenous ligand; for EC50: CHO-K1 cell, aequorin luminescence
Protocol: (§3) Test 1: Evaluation of Agonistic Activity for Human 5-HT1A Receptor and Human D4 Receptor
(§4) Aequorin, Gα16 proteins, and each receptor were transiently expressed in CHO-K1 cell (Chinese hamster ovary), and seeded to 384-well plate. The plate was incubated in a CO2 incubator at 37° C. for 24 hours. Each example compound dissolved in DMSO was added thereto, and the change of luminescence amount was measured with Hamamatsu FDSS/μCELL System (Hamamatsu Photonics).

human 5-HT1A receptor [4] = molecular target: T1, human 5-HT1A receptor; assay: Test 1: agonistic activity for human 5-HT1A receptor (aequorin/Gα16 luminescence in CHO-K1 cell); type: cell-based; conditions: for Emax: CHO-K1; for Emax / 5-HT1A agonistic activity Emax: 100% = 10 μmol/L endogenous ligand; for EC50: CHO-K1 cell, aequorin luminescence
Protocol: as §3, §4

human D2 receptor = human D2 receptor (Homo sapiens (Human), UniProt P14416); assay: Test 2: binding activity to human D2 receptor ([3H] spiperone, CHO cell membrane); conditions: [3H] spiperone; read-out: D2 binding affinity (Ki value)
Protocol: as §1, §2

hERG channel = hERG channel (Homo sapiens (Human), UniProt Q12809); assay: Test 5-2: activity for inhibiting hERG channel (whole-cell patch clamp, hERG-CHO cell, Qube); type: cell-based; conditions: read-out: hERG inhibition IC50
Protocol: Test 5-2: Evaluation of Activity for Inhibiting hERG Channel
The activity of the present compound for inhibiting hERG channel was measured by whole-cell patch clamp method with auto patch clamp system, using CHO cell wherein hERG channel involved in human rapidly activating delayed rectifier potassium current (IKr) was forcibly expressed.
hERG-CHO cell purchased from ChanTest was incubated at 37° C. in a CO2 incubator, and the cell was exfoliated from the flask with trypsin to prepare a cell suspension, shortly before the hERG current measurement.
Extracellular fluid: 2 mmol/L CaCl2, 1 mmol/L MgCl2, 10 mmol/L HEPES, 4 mmol/L KCl, 145 mmol/L NaCl, 10 mmol/L glucose
Intracellular fluid: 10 mmol/L HEPES, 10 mmol/L EGTA, 20 mmol/L KCl, 130 mmol/L KF
Test compound solution: The compound was dissolved in DMSO by adjusting the concentration to 2 mmol/L or 20 mmol/L to prepare each test compound solution. […] (Measurement of Current Value and Data Analysis)
The cell suspension, the extracellular fluid, the intracellular fluid, and the measurement plate were set in an auto patch clamp system, and the hERG current was measured by whole-cell patch clamp method. The voltage-protocol was as follows: the holding potential was adjusted to −80 mV, the depolarizing pulse was added at −50 mV to +20 mV for 5 seconds, the repolarizing pulse was added at −50 mV for 5 seconds, then the potential was returned to the holding potential. Each pulse interval was 15 seconds. The data analysis was carried out with Qube Assay Software (Sophion Scientific). The test was carried out applying increscently 4 concentrations of each test compound, and the average of the peak tail currents that were obtained by the last 3 stimulations in each applied concentration was made to be the evaluated data. By using the current inhibition rate for the pre-applied current at each concentration of each test compound, IC50 value was calculated by Hill equation with the software.

[5] = Test 3-1: metabolic stability test of human liver microsome (0.1 mg/mL); type: in vitro ADME; conditions: test compound 0.1 μmol/L, 37° C., 30 minutes
Protocol: Test 3-1: Metabolic Stability Test of Human Liver Microsome
The stability of the present compounds for human liver microsome metabolism was evaluated as mentioned below. The used human liver microsome was obtained from Xenontech. Human liver microsome, NADPH, and each test compound were mixed in 25 mmol/L phosphate buffer solution (pH 7.4) to adjust each concentration as shown below, and the mixture was incubated at 37° C. for 30 minutes. • human liver microsome: 0.1 mg/mL • NAPDH: 3.2 mmol/L • test compound: 0.1 μmol/L
The residual ratio of the test compound in each sample after the incubation for 30 minutes was measured with a LC-MS, and the metabolic stability of human liver microsome was calculated about each test compound with the following formula. Metabolic stability of human liver microsome (mL/min/mg protein)=−LN (residual ratio)/“reaction time”/“concentration of human liver microsome”

[6] = [3H] dopamine, read-out: D4 binding affinity (Ki value)

Chain of hERG channel (Q12809 whole entry): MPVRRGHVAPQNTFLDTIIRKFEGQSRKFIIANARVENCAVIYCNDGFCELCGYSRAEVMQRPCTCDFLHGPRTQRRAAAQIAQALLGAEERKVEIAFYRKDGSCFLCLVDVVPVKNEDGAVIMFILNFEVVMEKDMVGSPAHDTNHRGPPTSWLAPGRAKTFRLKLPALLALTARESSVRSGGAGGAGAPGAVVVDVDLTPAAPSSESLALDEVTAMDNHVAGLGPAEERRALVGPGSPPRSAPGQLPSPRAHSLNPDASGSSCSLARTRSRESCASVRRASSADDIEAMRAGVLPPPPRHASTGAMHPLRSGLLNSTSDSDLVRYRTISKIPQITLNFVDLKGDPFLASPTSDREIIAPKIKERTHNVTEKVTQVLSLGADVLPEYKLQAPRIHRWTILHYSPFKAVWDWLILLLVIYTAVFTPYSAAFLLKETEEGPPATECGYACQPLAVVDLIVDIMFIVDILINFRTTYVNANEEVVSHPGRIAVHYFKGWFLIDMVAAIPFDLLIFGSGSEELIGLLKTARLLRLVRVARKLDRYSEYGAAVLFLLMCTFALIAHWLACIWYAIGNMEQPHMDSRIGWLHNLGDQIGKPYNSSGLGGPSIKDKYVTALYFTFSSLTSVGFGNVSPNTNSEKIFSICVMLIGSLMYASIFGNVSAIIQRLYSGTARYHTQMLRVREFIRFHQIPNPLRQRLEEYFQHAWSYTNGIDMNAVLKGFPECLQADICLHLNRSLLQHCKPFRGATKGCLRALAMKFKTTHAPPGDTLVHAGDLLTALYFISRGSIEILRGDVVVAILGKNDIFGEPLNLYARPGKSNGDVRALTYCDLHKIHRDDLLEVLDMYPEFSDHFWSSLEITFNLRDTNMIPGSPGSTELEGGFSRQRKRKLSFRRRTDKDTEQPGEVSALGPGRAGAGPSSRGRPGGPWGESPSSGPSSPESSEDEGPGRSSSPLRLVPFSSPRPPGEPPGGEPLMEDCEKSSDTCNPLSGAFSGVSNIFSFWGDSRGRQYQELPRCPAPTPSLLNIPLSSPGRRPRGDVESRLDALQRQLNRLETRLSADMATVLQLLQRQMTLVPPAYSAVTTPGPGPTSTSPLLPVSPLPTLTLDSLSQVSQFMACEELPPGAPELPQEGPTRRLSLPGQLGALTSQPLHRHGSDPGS
Chain of human D2 receptor (P14416 whole entry): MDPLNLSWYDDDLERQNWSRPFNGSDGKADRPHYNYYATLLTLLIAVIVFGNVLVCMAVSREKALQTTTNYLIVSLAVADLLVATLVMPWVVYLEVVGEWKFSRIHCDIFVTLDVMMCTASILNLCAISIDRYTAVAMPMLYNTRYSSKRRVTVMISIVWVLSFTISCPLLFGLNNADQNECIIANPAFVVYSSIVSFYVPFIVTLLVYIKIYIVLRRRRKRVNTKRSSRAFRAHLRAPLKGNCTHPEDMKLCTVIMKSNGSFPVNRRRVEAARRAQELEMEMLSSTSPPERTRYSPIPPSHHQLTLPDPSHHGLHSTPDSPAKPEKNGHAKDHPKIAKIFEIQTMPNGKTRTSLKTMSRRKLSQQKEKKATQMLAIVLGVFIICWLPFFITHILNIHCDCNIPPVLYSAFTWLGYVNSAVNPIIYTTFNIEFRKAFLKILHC
T1 sequence (P08908 whole entry): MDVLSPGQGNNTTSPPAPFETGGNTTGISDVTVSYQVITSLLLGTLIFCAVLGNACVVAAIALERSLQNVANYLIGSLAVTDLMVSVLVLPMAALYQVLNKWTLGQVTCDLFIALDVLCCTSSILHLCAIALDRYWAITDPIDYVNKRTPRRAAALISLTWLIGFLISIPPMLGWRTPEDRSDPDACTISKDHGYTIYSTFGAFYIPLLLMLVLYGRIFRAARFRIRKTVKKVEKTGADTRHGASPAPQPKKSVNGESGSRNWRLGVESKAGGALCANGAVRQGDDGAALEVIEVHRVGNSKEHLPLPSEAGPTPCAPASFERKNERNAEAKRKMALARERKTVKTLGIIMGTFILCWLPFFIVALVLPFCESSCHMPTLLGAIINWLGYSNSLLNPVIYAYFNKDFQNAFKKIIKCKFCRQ
T2 sequence (P21917 whole entry): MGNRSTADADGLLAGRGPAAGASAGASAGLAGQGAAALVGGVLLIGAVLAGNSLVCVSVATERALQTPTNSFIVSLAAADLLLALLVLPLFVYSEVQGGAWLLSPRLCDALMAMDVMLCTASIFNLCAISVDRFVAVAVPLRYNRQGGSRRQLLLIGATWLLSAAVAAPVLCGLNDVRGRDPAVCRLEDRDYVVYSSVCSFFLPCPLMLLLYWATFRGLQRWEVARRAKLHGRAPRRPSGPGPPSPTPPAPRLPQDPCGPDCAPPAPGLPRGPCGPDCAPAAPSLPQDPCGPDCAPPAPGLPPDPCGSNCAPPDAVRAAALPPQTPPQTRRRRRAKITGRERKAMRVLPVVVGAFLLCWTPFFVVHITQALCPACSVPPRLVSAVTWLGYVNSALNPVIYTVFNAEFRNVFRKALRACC

| Structure (SMILES) | Ki (human 5-HT1A receptor [1]) | Emax (human D4 receptor [3]) | EC50 (human D4 receptor [3]) | Emax (human 5-HT1A receptor [4]) | EC50 (human 5-HT1A receptor [4]) | Ki (human D2 receptor) | Ki (human D4 receptor [2]; [6]) | Ki (human D4 receptor [2]) | IC50 (hERG channel) | Metabolic stability of human liver microsome [5] | D4 agonistic activity Emax (human D4 receptor [3]) | 5-HT1A agonistic activity Emax (human 5-HT1A receptor [4]) |
| --- | --- | --- | --- | --- | --- | --- | --- | --- | --- | --- | --- | --- |
| COCC(C)(C)C(=O)NCCN1CC=C(c2cccc(C)n2)CC1 [Example 17] | 26 nM | 51% | 44 nM | 30% | 94 nM | > 10000 nM |  | 91 nM |  |  |  |  |
| O=C(NCCN1CCC(c2cccc(C(F)(F)F)n2)CC1)C1CCCO1 (stereo not drawn) [Example 25] | 20 nM | 49% | 30 nM | 46% | 67 nM | 3330 nM | 423 nM |  | > 10000 nM | <0.05 mL/min/mg protein |  |  |
| Cc1cccc(C2=CCN(CCNC(=O)C(C)(C)C)CC2)n1 [Example 30, 2,2-Dimethyl-N-[2-(6-methyl-3′,6′-dihydro[2,4′-bipyridin]-1′ (2′H)-yl)ethyl]propanamide] | 1.4 nM | 59% | < 10 nM | 36% | 27 nM | > 10000 nM |  | 14 nM | > 10000 nM | 0.114 mL/min/mg protein |  |  |
| Cc1cccc(C2=CCN(CCNC(=O)[C@H]3C[C@@H]4CC[C@H]3O4)CC2)n1 [Example 13] | 1.1 nM | 55% | < 10 nM | 48% | < 10 nM | > 10000 nM |  | 24 nM | > 10000 nM | <0.05 mL/min/mg protein |  |  |
| Cc1cccc(C2CCN(CCNC(=O)C3CCCO3)CC2)n1 (stereo not drawn) [Example 24] | 27 nM | 62% | 32 nM | 50% | 67 nM | > 10000 nM | 3380 nM |  |  |  |  |  |
| Cc1cccc(C2=CCN(CCNC(=O)C3CCC(F)(F)CC3)CC2)n1 [Example 14] | 0.1 nM | 53% | < 10 nM | 41% | < 10 nM | 2440 nM |  | 3 nM | 8100 nM | 0.084 mL/min/mg protein |  |  |
| O=C(NCCN1CCC(c2cccc(C(F)(F)F)n2)CC1)C1CCOC1 (stereo not drawn) [Example 23] | 166 nM | 59% | 62 nM | 28% | 632 nM | > 10000 nM | 408 nM |  |  |  |  |  |
| Cc1cccc(C2CCN(CCNC(=O)C3CCOC3)CC2)n1 (stereo not drawn) [Example 22] | 58 nM | 57% | 57 nM | 25% | 595 nM | > 10000 nM | 2240 nM |  |  |  |  |  |
| Cc1cccc(C2CCN(CCNC(=O)C3CCCOC3)CC2)n1 (stereo not drawn) [Example 15] | 13 nM | 55% | 41 nM | 33% | 100 nM | > 10000 nM | 505 nM |  | > 10000 nM | <0.05 mL/min/mg protein |  |  |
| O=C(NCCN1CCC(c2cccc(C(F)(F)F)n2)CC1)[C@H]1C[C@@H]2CC[C@H]1O2 [Example 21] | 15 nM | 62% | 65 nM | 30% | 84 nM | 2170 nM | 201 nM |  | > 10000 nM | <0.05 mL/min/mg protein |  |  |
| O=C(NCCN1CC=C(c2cccc(C(F)(F)F)n2)CC1)C1CCOCC1 [Example 19] | 0.8 nM | 84% | 9 nM | 65% | < 10 nM | > 10000 nM |  | 8 nM |  |  |  |  |
| CO[C@H]1CC[C@H](C(=O)NCCN2CCC(c3cccc(C)n3)CC2)CC1 [Example 26] | 79 nM | 36% | 3390 nM | 43% | 395 nM | > 10000 nM | 1900 nM |  |  |  |  |  |
| COCC(C)(C)C(=O)NCCN1CCC(c2cccc(C)n2)CC1 [Example 5] | 80 nM |  | 55.8 nM |  | 42 nM | > 10000 nM | 170 nM |  |  | <0.01 mL/min/mg protein | 57% | 100% |
| COCC(C)(C)C(=O)NCCN1CCC(c2cccc(C(F)(F)F)n2)CC1 [Example 6] | 37 nM |  | < 10 nM |  | 44 nM | > 10000 nM | 101 nM |  |  | <0.01 mL/min/mg protein | 58% | 96% |

The next lines start with results.

| Ki (human 5-HT1A receptor [1]) | Emax (human D4 receptor [3]) | EC50 (human D4 receptor [3]) | Emax (human 5-HT1A receptor [4]) | EC50 (human 5-HT1A receptor [4]) | Ki (human D2 receptor) | Ki (human D4 receptor [2]; [6]) | Structure (SMILES) | Ki (human D4 receptor [2]) | IC50 (hERG channel) | Metabolic stability of human liver microsome [5] | D4 agonistic activity Emax (human D4 receptor [3]) | 5-HT1A agonistic activity Emax (human 5-HT1A receptor [4]) |
| --- | --- | --- | --- | --- | --- | --- | --- | --- | --- | --- | --- | --- |
| 10 nM | 55% | 15 nM | 42% | 22 nM | > 10000 nM | 56 nM | O=C(NCCN1CCC(c2cccc(C(F)F)n2)CC1)C1CCOCC1 [Example 34] |  | 5500 nM | <0.05 mL/min/mg protein |  |  |
| 28 nM | 44% | 37 nM | 69% | 47 nM | 2470 nM | 104 nM | O=C(NCCN1CCC(c2cccc(OC(F)(F)F)n2)CC1)C1CCOCC1 [Example 28] |  | > 10000 nM | <0.05 mL/min/mg protein |  |  |
| 278 nM | 52% | 64 nM | 27% | 525 nM | > 10000 nM | 2260 nM | N#Cc1cccc(C2CCN(CCNC(=O)C3CCOCC3)CC2)n1 [Example 35, N-{2-[4-(6-Cyanopyridin-2-yl)piperidin-1-yl]ethyl}-tetrahydro-2H-pyran-4-carboxamide] |  |  |  |  |  |
| 108 nM | 57% | 52 nM | 40% | 343 nM | > 10000 nM | 73 nM | CNc1cccc(C2CCN(CCNC(=O)C3CCOCC3)CC2)n1 [Example 37, N-(2-{4-[6-(Methylamino)pyridin-2-yl]piperidin-1-yl}ethyl)-tetrahydro-2H-pyran-4-carboxamide] |  |  |  |  |  |
| 77 nM | 51% | 1650 nM | 44% | 570 nM | > 10000 nM | 2470 nM | CO[C@H]1CC[C@H](C(=O)NCCN2CCC(c3cccc(C(F)(F)F)n3)CC2)CC1 [Example 27] |  |  |  |  |  |
| 132 nM | 58% | 31 nM | 38% | 279 nM | > 10000 nM | 120 nM | Nc1cccc(C2CCN(CCNC(=O)C3CCOCC3)CC2)n1 [Example 36, N-{2-[4-(6-Aminopyridin-2-yl)piperidin-1-yl]ethyl}-tetrahydro-2H-pyran-4-carboxamide] |  |  |  |  |  |
| 42 nM | 67% | 7 nM | 51% | 67 nM | > 10000 nM | 96 nM | O=C(NCCN1CCC(c2cccc(F)n2)CC1)C1CCOCC1 [Example 32] |  |  |  |  |  |
